Values of other authors as cited in patent publication US20190350829A1, “AN ANTIMICROBIAL COMPOSITION” (Conopco, Inc., d/b/a UNILEVER, priority 2016, published 2019).
Read-outs that look alike come from different tables or passages of the source.

pKa: 4.89
pKa (listed as methyl caprylic acid): 4.93
Compound: CCCCC(C)CCC(=O)O (centres unmarked) [4-methyl octanoic acid]
